In US11820762B2, “Compounds as potential therapeutic agents targeting various neurodegenerative diseases” (The Hong Kong University of Science and Technology, priority 2020, dated 2023):

Columns and labels:
[1] = system: DNA (G4C2)4 (SEQ ID NO: 5) G4; experiment: 1D 1H-NMR titration of DNA (G4C2)4 G4; type: binding; settings: for binding to DNA (G4C2)4 G4 by NMR titration: G4:compound ratio 1:1 to 1:10
Protocol: (§1) Single […] were purchased from Integrated DNA Technologies (IDT) and Takara. Single-strand DNA/RNA sample at 100 μM was then annealed by heating up to 95° C. for 15 mins, and slowly cooled to room temperature in the annealing buffer (70 mM KCl, 20 mM potassium phosphate (pH 7.0)) for overnight. The final NMR samples contained 0.1 mM DNA or RNA in 70 mM KCl and 20 mM potassium phosphate buffer (pH 7.0).
(§2) The 1D ^1H-NMR spectra were performed at 25° C. All compounds were dissolved in isotope-labeled d6-DMSO (Sigma-Aldrich) at about 50 mM concentration, working as stock solutions. To avoid chemical shift changes of DNA/RNA G4 resulted from d6-DMSO addition, […] d6-DMSO was added into 500 μL of 0.1 mM DNA/RNA G4 solution in the NMR buffer (20 mM potassium phosphate buffer and 70 mM KCl, pH 7.0, 10% D2O) and then 1D ^1H-NMR spectrum was recorded as a reference. During NMR titration experiments of adding each compound into the DNA/RNA G4 solution, the maximal volume of 10 μL of each compound in d6-DMSO solution was regarded as a final data point.
We next confirmed the binding of cA and DNA (G4C2)4 (SEQ ID NO: 5) G4 by NMR titration experiments.

[2] = Parallel artificial membrane permeability assay (PAMPA); type: in vitro ADME; settings: 500 μM; 37° C., 18 hours
Protocol: 500 μL of 500 μM test compound and 200 μM Equilibrium Standards for each test compound were prepared. 5 μL DMSO plus 245 μL PBS served as blank control. Firstly, 300 μL PBS was added to each well in the acceptor plate. With the donor plate in its tray, 5 μL 4% Lecithin in Dodecane was added directly to the well membranes of the donor plate. 200 μL of each 500 μM test compound was added to duplicate wells of the donor plate. The donor plate was carefully placed into the acceptor plate wells and incubated at 37° C. for 18 hours. Then the liquid in acceptor plate wells was collected as Acceptor Solution for analysis. Absorbance spectrum from 200 nm to 500 nm in 10 nm intervals was read to determine the peak absorbance of test compounds and blank control.
In addition, we also tested the permeability on live cells. Neuro2a cells treated with cA at different concentrations (10 μg/ml, 20 μg/ml) for different incubation time (24 h, 48 h) were lysed. Supernatants of cell lysates were collected and analyzed by UPLC-MS. Meanwhile, cell media from different treatment groups were used as control. […] In contrast, the intensity of cA signal was the same in the three corresponding cell media groups (FIG. 25, 4-6).

[3] = system: RNA (G4C2)2 (SEQ ID NO: 8) G4; experiment: 1D 1H-NMR titration of RNA (G4C2)2 G4; type: binding; settings: ratios 1:3, 1:5, 1:10
Protocol: as §1
as §2, with “point. […]” for “point.”

[4] = system: DNA (G4C2)2 (SEQ ID NO: 4) G4; experiment: 1D 1H-NMR titration of DNA (G4C2)2 G4; type: binding; settings: cA at 1:1, 1:5, 1:10
Protocol: as §1, §2
(§3) In addition to the four-repeat G4C2 DNA G4, there are parallel and hybrid G4 conformations formed simultaneously by the two-repeat G4C2 DNA^38,39. […]

[5] = system: human telomeric variant htel21_T18 G4; experiment: 1D 1H-NMR titration of human telomeric variant htel21_T18 G4; type: binding; settings: cA at 1:10
Protocol: as §1, §2, §3

Tau-R3 = target: T1, Tau-R3 (Homo sapiens, UniProt P10636); experiment: Thioflavin T (ThT) fluorescent tau-R3 aggregation assay; type: biochemical; settings: 20 μM Tau-R3, 10 μM heparin, read-out: IC50 of Tau-R3 aggregation inhibition (converted)
T1 construct: Tau-R3 protein was synthesized and purchased from ChinaPeptides Co., Ltd; purchased ChinaPeptides Co., Ltd; host or cells: chemical synthesis
T1 sequence (P10636 623-653 limits assumed): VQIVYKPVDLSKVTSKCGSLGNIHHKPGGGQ
Protocol: Tau-R3 protein was synthesized and purchased from ChinaPeptides Co., Ltd. ThT (ab120751, 1 mM) solution was freshly prepared in 50 mM Tris-HCl buffer (pH 7.4) and passed through a 0.45 μm pore size filter to remove insoluble particles before use. Tau-R3 (20 μM) was incubated with 20 μM ThT and 10 μM heparin in the presence or absence of cA, cB and cC. Samples in 200 μL were added to 96-well plates and incubated at 37° C. for 24-48 hours. ThT fluorescence intensity was recorded using a microplate reader with 440/480 nm excitation/emission filters at different time points. Non-linear regression analysis was performed to fit the boltzmann sigmoidal.
In the C9orf72 ALS/FTD, there is a strong genetic association between the microtubule-binding protein, tau and the G4C2 HRE. […] The co-expression of Tau and G4C2 repeats produces a synergistic deterioration of the neurodegeneration phenotype of ALS/FTD^46. Considering the tight correlation of Tau aggregation with the ALS/FTD pathogenesis, we tested our compounds in a non-cell-based Tau-R3 aggregation inhibition assay. […] Moreover, we conducted high magnification TEM imaging to characterize the morphological changes of Tau-R3 fibrils with cA, cB and cC treatments. […] Furthermore, the misfolding of tau protein into filaments in neurons of the central nervous system can be found in various neurodegenerative diseases, such as Alzheimer's disease et al. Therefore, the inhibition on tau aggregation represented a potential of cA and its derivatives in targeting multiple other neurodegenerative diseases more than ALS.

[6] = system: differentiated HT22 cells; experiment: cells; type: cell-based; settings: for EC50: Mus musculus, HT-22, differentiated HT22 cells pre-treated with 5 mM L-glutamate, cell viability; for neuroprotective activity compared with cA: comparison of analogs
Protocol: Cytotoxicity of compounds was tested by MTT assay. Cells were grown in DMEM (Gibco) with 10% FBS and 1% penicillin-streptomycin at 37° C. with 5% CO2. In total, 5×10^3 cells were seeded in each well of 96-well plates and cultured for 24 hours. Then cells were treated with different concentrations of compounds dissolved in DMSO for another 24 hours. After incubating with 20 μl of MTT (5 mg/mL) for each well at 37° C. for another four hours, 100 μl of DMSO was added to dissolve formazan. Absorbance was measured using a Multiskan™ FC microplate photometer at 570 nm. IC50 data were analyzed with GraphPad Prism software.
Cultured HT22 cells were differentiated by applying 10 μM retinoic acid (Sigma-Aldrich, R2625-50MG) and 500 μM cAMP (Sigma-Aldrich, A6885) in DEME medium supplied with 0.5% FBS (differentiation medium) and incubated 48 hours before adding other treatments. 5 mM L-glutamate acid was applied to the original differentiation medium for further 24-hours incubation. Cell viability was measured by MTT assay described above.
In the C9orf72 associated ALS/FTD, the G4C2 HRE make motor neurons more vulnerable to aberrant neuron excitation^43. Meanwhile, the hyperactivation of glutamate receptors drives a toxic level of neuronal activity, promoting the non-ATG (RAN) translation of G4C2 repeat-associated DPR proteins^44, leading to further toxicity of motor neurons. Thus, we would like to test our compounds in a glutamate (E)-induced excitotoxicity cell model.

RRM domain of hnRNP H = target: T2, RRM domain of hnRNP H (Homo sapiens, UniProt P31943); experiment: 1H-15N HSQC NMR titration of hnRNP H RRM domain; type: binding; settings: ratios 1:5 and 1:10
T2 construct: HSQC spectra of RRM1/2 of hnRNP H; hexahistidine (cleaved yes); made in house; host or cells: Escherichia coli BL21(DE3), pET-28a(+)
T2 sequence (P31943 1-194 limits assumed): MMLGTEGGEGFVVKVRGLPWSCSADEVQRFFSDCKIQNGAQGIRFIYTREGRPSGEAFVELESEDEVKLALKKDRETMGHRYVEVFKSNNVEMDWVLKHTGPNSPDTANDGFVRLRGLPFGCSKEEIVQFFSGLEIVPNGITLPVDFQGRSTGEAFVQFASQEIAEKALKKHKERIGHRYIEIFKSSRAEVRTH
Protocol: The coding sequence of the RRM domain of hnRNP H/F, or human Orc6 was inserted into the expression vector pET-28a(+) (Novagen). Protein was expressed in Escherichia coli BL21(DE3) at 37° C. for 5 hours. Cell lysates were subject to affinity purification with nickel-nitrilotriacetic acid resin (Qiagen) followed by cleavage of hexahistidine tag with Protease 3C enzyme. Products were further purified on a Superdex 75 column (GE Healthcare). For NMR studies, uniformly ^15N labeled protein was expressed and purified as described above, except for cells grown in M9 medium containing 100% ^15N enriched ammonium chloride (Cambridge Isotopes) and d-glucose.
Titration experiments were performed by recording a series of 2D ^15N-HSQC spectra on uniformly ^15N-labeled RRM domain (˜0.1 mM) in the presence of different amounts of DNA/RNA or compounds at 25° C. Protein samples and stock solutions of DNA/RNA were all prepared in 20 mM potassium phosphate buffer and 70 mM KCl, pH 7.0, 10% D2O. All compounds were dissolved in isotope-labeled d6-DMSO (Sigma-Aldrich) at about 50 mM concentration, working as stock solutions. To avoid chemical shift changes of protein samples resulted from d6-DMSO addition, 10 μL d6-DMSO was added into 500 μL of 0.1 mM protein solution in the NMR buffer (20 mM potassium phosphate buffer and 70 mM KCl, pH 7.0, 10% D2O) and then the 2D HSQC was recorded as a reference.
In this scenario, specific RNA-binding proteins (RBPs), like hnRNP H, are recruited by the RNA foci, resulting in RNA processing impairment and further cytotoxicity to the central nervous system^30,36,37. Therefore, we tested the binding possibility of cA with the RRM domain of hnRNP H by NMR titration. […] Intriguingly, the DNA (G4C2)4 (SEQ ID NO: 5) G4 was also shown a potent binding affinity to the RRM domain of hnRNP H (FIG. 4C).

## N=C(N)c1ccc(-c2ccc(-c3ccc(-c4ccc(C(=N)N)cn4)o3)o2)nc1 [DB1246, reference compound]
[1]
  binding to DNA (G4C2)4 G4 by NMR titration: strongly bound
[2]
  permeability (PAMPA): much worse permeability than cA, cB, cC
[3]
  binding to RNA (G4C2)2 G4 by NMR titration: strongly bound
[4]
  binding to DNA (G4C2)2 G4 by NMR titration: strongly bound
[5]
  binding to htel21_T18 G4 by NMR titration: strongly bound

## COc1c2c(c(O)c3c(=O)c4cccc(O[C@@H]5O[C@H](C(=O)O)[C@@H](O)[C@H](O)[C@H]5O)c4oc13)-c1c(cc(CC(C)=O)c(C(=O)O)c1O)CC2 [cD, chrexanthomycin D]
Tau-R3
  IC50: 4.75 µM
[6]
  cytotoxicity (structure-activity summary): showed cytotoxicity
  EC50: 53.6 µM
  neuroprotective activity compared with cA: worse than cA

## COc1c2c(c(OC)c3c(=O)c4cccc(O[C@@H]5O[C@H](C(=O)O)[C@@H](O)[C@H](O)[C@H]5O)c4oc13)-c1c(cc(CC(C)=O)c(C(=O)O)c1O)CC2 [cE, chrexanthomycin E]
Tau-R3
  IC50: 6.13 µM
[6]
  cytotoxicity (structure-activity summary): showed cytotoxicity
  neuroprotective activity compared with cA: worse than cA

## C[C@@]1(O)Cc2cc3c(c(O)c2C(=O)O1)-c1c(c(O)c(O)c2c(=O)c4cccc(O[C@@H]5OC(C(=O)O)=C[C@H](O)[C@H]5O)c4oc12)CC3 [cF, chrexanthomycin F]
[1]; DNA (G4C2)4 G-quadruplex and hnRNP H, FIGS. 3C-3E
  binding affinity order according to NMR titration: cC>cA>cB>cF
[1]
  binding to DNA (G4C2)4 G4 by NMR titration: proved to bind
[6]
  neuroprotective activity compared with cA: worse than cA
RRM domain of hnRNP H
  binding to RRM domain of hnRNP H by NMR titration: much weaker bindings

## CC12CC3CC(C)(C1)CC(N)(C3)C2 [memantine, reference compound]
[6]
  EC50: 23.9 µM

## COCCOC(=O)C1=C(C)NC(C)=C(C(=O)OC(C)C)C1c1cccc([N+](=O)[O-])c1 (stereo not drawn) [nimodipine, reference compound]
[6]
  EC50: 1.14 µM
